Results: US20100160176A1, “RAT GENE […] OF DRUG TRANSPORTERS, CYTOCHROME P450s, TRANSFERASES AND NUCLEAR […] FOR PREDICTING DRUG EFFECTS” (NOAB BIOD[…]., priority 2008, published 2010)
Read-outs that look alike come from different tables or passages of the source.

Tests used:
[1] = system: ABCC3 gene expression; test: Rat DTEx microarray gene expression profiling in drug-treated female rat primary hepatocytes (FIG. 109): ABCC3; format: in vitro ADME
Experimental: (§1) Images were analysed using QuantArray software (GSI Lumonics Inc.).

[2] = system: CYP3A1 gene expression; test: Rat DTEx microarray gene expression profiling in drug-treated female rat primary hepatocytes (FIG. 109): CYP3A1; conditions: female rat primary hepatocytes treated with the drug
Text: The total RNA component of the nucleic acid lysate was isolated according to the manufacturer's instructions.

[3] = system: ABCD2 gene expression; test: Rat DTEx microarray gene expression profiling in drug-treated female rat primary hepatocytes (FIG. 109): ABCD2; format: in vitro ADME
Experimental: as §1

[4] = female rat primary hepatocytes treated with the drug, FIG. 109

Structure (SMILES) | effect on ABCC3 gene expression (normalized fluorescence intensity dendrogram plot) [1, 4] | effect on CYP3A1 gene expression (normalized fluorescence intensity dendrogram plot) [2] | effect on ABCD2 gene expression (normalized fluorescence intensity dendrogram plot) [3, 4] | effect on ABCC3 gene expression (normalized fluorescence intensity dendrogram plot) [1] | effect on ABCD2 gene expression (normalized fluorescence intensity dendrogram plot) [3]
CC(=O)[C@H]1[C@H](C#N)C[C@H]2[C@@H]3CC=C4C[C@@H](O)CC[C@]4(C)[C@H]3CC[C@@]21C [PCN] | suppresses gene expression | induce | suppress |  | 
C[C@@H]1C[C@H]2[C@@H]3CCC4=CC(=O)C=C[C@]4(C)[C@@]3(F)[C@@H](O)C[C@]2(C)[C@@]1(O)C(=O)CO [DEX, dexamethasone] |  |  |  | induces gene expression | suppress
